Measured values published in the OPERA property sets (Mansouri et al. 2018).

Conditions: not given

Row | Compound | log10 Henry constant (atm·m³/mol) | log10 Koc (L/kg) | boiling point | melting point | ready biodegradability | log10 vapour pressure (mmHg)
1 | Clc1cc(-c2c(Cl)ccc(Cl)c2Cl)c(Cl)c(Cl)c1Cl | -4.85 | – | – | – | – | –
2 | O=C(O)c1c(Cl)c(Cl)c(Cl)c(Cl)c1C(=O)O | – | 3.3 | – | – | – | –
3 | c1cncnc1 | – | – | 124 °C | 22 °C | not readily biodegradable | –
4 | CN(C)C(CSS(=O)(=O)c1ccccc1)CSS(=O)(=O)c1ccccc1 | – | – | – | 83.5 °C | – | –
5 | CC(Br)C(C)(Br)Br (centres undefined) | – | – | 206 °C | 1.8 °C | – | –
6 | CC(C)CCOC(=O)C(=O)OCCC(C)C | – | – | 268 °C | -9 °C | – | –
7 | Ic1ccc(I)c(I)c1I | – | – | – | 136 °C | – | –
8 | O=C1CCCCCC1=O | – | – | – | -40 °C | – | –
9 | c1ccc(CC2CCNCC2)cc1 | – | – | 270 °C | 16.8 °C | – | –
10 | Nc1ccc(-c2ccc(N)c(N)c2)cc1N | – | – | – | 176 °C | – | –
11 | O=S(=O)(O)c1ccc(O)cc1 | – | – | – | – | readily biodegradable | –
12 | CCCC(C)(CC)C(C)C (centres undefined) | – | – | 166 °C | – | – | –
13 | CCCCCCCC/C=C\CCCCCCCC(=O)OCC(COC(=O)CCCCCCC/C=C\CCCCCCCC)OC(=O)CCCCCCC/C=C\CCCCCCCC | – | – | – | – | readily biodegradable | –
14 | CN(C)c1ccc(N=C2C=CC(=O)C=C2)cc1 | – | – | – | 134 °C | – | –
15 | Cc1c(C(C)C)c(=O)n(-c2ccccc2)n1C | – | – | – | 103 °C | – | –
16 | C=C1CC=C(C(C)C)CC1 | – | – | 174 °C | – | – | –
17 | Oc1ccc2c(O)cccc2c1 | – | – | – | 138 °C | – | –
18 | N#CCCC(Br)(C#N)CBr (centres undefined) | – | – | – | 52 °C | – | –
19 | OCc1cccc(I)c1 | – | – | 252 °C | – | – | –
20 | O=C(Cl)c1cccc(Cl)c1 | – | – | 225 °C | – | – | -0.854
21 | CCC=CC(C)(C)C | – | – | 103 °C | – | – | –
22 | CN(C)C(=O)Nc1cccc(F)c1 | – | 1.73 | – | – | – | –
23 | CC(C)(C)c1cc(C(=O)O)c(O)c(C(C)(C)C)c1 | – | – | – | – | not readily biodegradable | –

Row | Compound | log10 Henry constant (atm·m³/mol) | log10 Koc (L/kg) | boiling point | melting point | ready biodegradability | log10 vapour pressure (mmHg)
24 | CC(=O)OCC(=O)O | – | – | – | 67.5 °C | – | –
25 | ClCCCCCCCCCl | – | – | 241 °C | – | not readily biodegradable | –
26 | O=C(Nc1cccc2ccccc12)Nc1cccc2ccccc12 | – | – | – | 296 °C | – | –
27 | CCCCCCCCCCCCCCCCCCCO | – | – | – | 63.3 °C | – | –
28 | Cc1ccccc1NC(=O)c1ccccc1 | – | – | – | 146 °C | – | –
29 | C1CCC2OC2C1 (centres undefined) | – | – | 132 °C | – | – | –
30 | C=CF | – | – | -72 °C | -160 °C | – | 4.3
31 | CCOc1ccc(NS(=O)(=O)c2ccc(N)cc2)nn1 | – | – | – | 183 °C | – | –
32 | Oc1c(Cl)cc(Cl)c2cccnc12 | – | – | – | 180 °C | – | –
33 | CCC=Cc1ccccc1 | – | – | 199 °C | -43.1 °C | – | –
34 | Cc1cccc(N)c1C | – | – | 222 °C | – | not readily biodegradable | -1.12
35 | Cc1cc[nH]c(=O)c1 | – | – | 308 °C | 130 °C | – | –
36 | NS(=O)(=O)c1ccc(S(=O)(=O)CCCO)c(F)c1 | – | – | – | 130 °C | – | –
37 | Cc1ccc(C(=O)O)o1 | – | – | – | 110 °C | – | –
38 | ClC(Cl)(Cl)Br | – | – | 105 °C | -5.7 °C | – | 1.59
39 | CCCCCCCCCCCCCCCCCCCBr | – | – | – | – | – | -5.65
40 | CCCCOC(=O)CCCCC(=O)OCCCC | – | – | – | -32.4 °C | readily biodegradable | –
41 | CCc1ccnc(C)c1 | – | – | 179 °C | – | – | –
42 | C=CCN1CC[C@]23CCCC[C@H]2[C@H]1Cc1ccc(O)cc13 | – | – | – | 181 °C | – | –
43 | CC(C)OC(C)(C)C | – | – | 87.6 °C | -88 °C | – | –
44 | Nc1cc2c3ccccc3ccc2c2ccccc12 | – | 5.21 | – | 210 °C | – | –
45 | Clc1ccc(Cl)s1 | – | – | 162 °C | -40.5 °C | – | 0.934
46 | CCCCCCCCBr | – | – | 200 °C | -55 °C | – | -0.418

Row | Compound | log10 Henry constant (atm·m³/mol) | log10 Koc (L/kg) | boiling point | melting point | ready biodegradability | log10 vapour pressure (mmHg)
47 | Fc1c(F)c(F)c(I)c(F)c1F | – | – | 166 °C | -29 °C | – | –
48 | CCC(Cl)[N+](=O)[O-] (centres undefined) | – | – | 142 °C | – | – | –
49 | C[n+]1cc2c3c(ccc2c2ccc4cc5c(cc4c21)OCO5)OCO3 | – | – | – | 266 °C | – | –
50 | CC=C(Cl)Cl | – | – | 76.5 °C | – | – | 1.96
51 | CCOC(=O)c1cccc(Cl)c1O | – | – | 270 °C | 21 °C | – | –
52 | Cc1cnccc1N | – | – | – | 108 °C | – | –
53 | Nc1cc(Cl)cc(C(=O)O)c1Cl | – | 1.48 | 312 °C | 200 °C | not readily biodegradable | –
54 | FC(F)(Cl)C(Cl)(Cl)Cl | – | – | 91.5 °C | 40.6 °C | – | 1.78
55 | Clc1ccc(-c2ccccc2Cl)c(Cl)c1 | – | 4.84 | – | – | – | –
56 | O=c1ccc2ccccc2[nH]1 | – | – | – | 200 °C | – | –
57 | CNC(=O)Oc1cc(C)cc(C)c1 | – | 1.71 | – | 99 °C | not readily biodegradable | -3.44
58 | CC(=O)Nc1ccc(Cl)cc1 | – | – | 333 °C | 179 °C | – | –
59 | CCCCCCC(C)CCC (centres undefined) | – | – | 187 °C | -77.5 °C | – | –
60 | O=C(Nc1ncc([N+](=O)[O-])s1)c1cccs1 | – | – | – | 256 °C | – | –
61 | Clc1nnnn1-c1ccccc1 | – | – | – | 123 °C | – | –
62 | C=C(C)C(C)(C)C | – | – | 77.9 °C | -110 °C | – | 2.05
63 | O=S(=O)(Cl)c1cccc2ccccc12 | – | – | – | 68 °C | – | –
64 | Oc1cccc(S)c1 | – | – | – | 16.5 °C | – | –
65 | Oc1c(Cl)cc(Cl)c2ccccc12 | – | – | – | 108 °C | not readily biodegradable | –
66 | COc1cc2c(cc1OC)C(=O)NCC2 | – | – | – | 175 °C | – | –
67 | CCCCc1cc2ccccc2c(OCCN(C)C)n1 | – | – | – | 146 °C | – | –
68 | BrCC(Br)Br | – | – | 189 °C | -29.3 °C | – | –
69 | [N-]=[N+]=Nc1ccc(Cl)cc1 | – | – | – | 20 °C | – | –

Row | Compound | log10 Henry constant (atm·m³/mol) | log10 Koc (L/kg) | boiling point | melting point | ready biodegradability | log10 vapour pressure (mmHg)
70 | COC(=O)CCCCCCCCCCCC(=O)OC | – | – | 332 °C | 36 °C | – | –
71 | CCCCCCCCCCCCCCCC(=O)OCCOC(=O)CCCCCCCCCCCCCCC | – | – | – | 72 °C | – | –
72 | O=C1C(O)=C(O)C(=O)c2ccccc21 | – | – | – | 282 °C | – | –
73 | O=C(O)CNc1ccccc1 | – | – | – | 128 °C | – | –
74 | FC(F)(F)Oc1ccccc1 | – | – | 102 °C | -50 °C | – | –
75 | Oc1cccc(Cl)c1O | – | – | – | 48.5 °C | – | –
76 | CCN1C[C@]2(COC)[C@H](O)C[C@H](OC)[C@]34C1[C@H]([C@H](OC)[C@H]23)[C@]1(OC(C)=O)[C@H]2[C@@H](OC(=O)c3ccccc3)[C@](O)(C[C@H]24)[C@@H](OC)[C@@H]1O | – | – | – | 204 °C | – | –
77 | CCOC(=O)COC(=O)c1cc(Oc2ccc(C(F)(F)F)cc2Cl)ccc1[N+](=O)[O-] | – | – | – | 65 °C | – | –
78 | CC(C)(C)C1CCCCC1 | – | – | 172 °C | -41.2 °C | – | 0.368
79 | ClC1=C(Cl)C2(Cl)C3C4OC4C(Cl)C3C1(Cl)C2(Cl)Cl (centres undefined) | -4.68 | 4.02 | – | 160 °C | – | -4.71
80 | CCNC=O | – | – | 198 °C | – | – | –
81 | C=CCC(C(=O)NC(N)=O)C(C)C (centres undefined) | – | – | – | 194 °C | – | –
82 | O=C(O)CCc1nc(-c2ccccc2)c(-c2ccccc2)o1 | – | – | – | 161 °C | – | –
83 | CCOC(=O)c1ccccc1OC | – | – | 261 °C | – | – | –
84 | CC1=CCC2C(C1)C2(C)C (centres undefined) | – | – | 170 °C | – | – | –
85 | Nc1ccc(O)c(C(=O)O)c1 | – | – | – | 283 °C | – | –
86 | FC(Br)C(F)(F)F (centres undefined) | -1.24 | – | 8.6 °C | -80 °C | – | –
87 | ClC(Cl)(Cl)CC(Cl)(Cl)Cl | – | – | 206 °C | -27 °C | – | –
88 | CC(S)CS (centres undefined) | – | – | 152 °C | – | – | –
89 | Clc1c2ccccc2nc2ccccc12 | – | – | – | 121 °C | – | –
90 | COc1cc(O)cc(OC)c1 | – | – | – | 37 °C | – | –

Same assay, conditions: fish

Row | Compound | log10 biotransformation half-life (days) | log10 BCF
91 | Clc1cc(-c2c(Cl)ccc(Cl)c2Cl)c(Cl)c(Cl)c1Cl | 2.47 | –
92 | CNC(=O)Oc1cc(C)cc(C)c1 | – | 0.4
93 | Oc1c(Cl)cc(Cl)c2ccccc12 | – | 1.35
94 | Brc1cc(Br)c(Oc2ccc(Br)c(Br)c2)c(Br)c1 | – | 6.29
95 | ClC1=C(Cl)C2(Cl)C3C4OC4C(Cl)C3C1(Cl)C2(Cl)Cl (centres undefined) | 2.2 | –
